Test results as given in patent US20180022750A1, “6-HYDROXYBENZOFURANYL- AND 6-ALKOXYBENZOFURANYL-SUBSTITUTED IMIDAZOPYRIDAZINES” (BAYER PHARMA AKTIENGESELLSCHAFT, priority 2014, published 2018).

How the values were obtained:
human full-length MKNK1 [1] = target: T1, human full-length MKNK1 (Homo sapiens, UniProt Q9BUB5); assay: MKNK1 kinase assay (TR-FRET, 10 μM ATP); assay type: biochemical; conditions: ATP 10 μM, 15 min preincubation, GST-MKNK1 (T344D)
T1 construct: GST (Glutathione-S-Transferase) (N); purchased Carna Biosciences 02-145; host or cells: insect cells (baculovirus expression system)
T1 sequence (Q9BUB5 1-424 isoform Q9BUB5-2 T344D): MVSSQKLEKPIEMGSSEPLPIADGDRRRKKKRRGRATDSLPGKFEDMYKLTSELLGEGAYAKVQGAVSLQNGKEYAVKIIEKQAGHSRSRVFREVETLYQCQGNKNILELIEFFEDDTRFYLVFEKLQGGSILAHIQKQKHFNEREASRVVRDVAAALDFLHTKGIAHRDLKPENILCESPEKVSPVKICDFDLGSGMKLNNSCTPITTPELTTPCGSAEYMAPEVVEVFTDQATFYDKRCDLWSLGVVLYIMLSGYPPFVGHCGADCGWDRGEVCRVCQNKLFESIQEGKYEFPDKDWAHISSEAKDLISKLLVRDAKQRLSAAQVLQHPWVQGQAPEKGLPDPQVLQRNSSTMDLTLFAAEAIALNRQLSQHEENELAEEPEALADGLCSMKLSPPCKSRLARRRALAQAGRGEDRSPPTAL
From the text: MKNK1-inhibitory activity of compounds of the present invention was quantified employing the MKNK1 TR-FRET assay as described in the following paragraphs.
(§1) A recombinant fusion protein of Glutathione-S-Transferase (GST, N-terminally) and human full-length MKNK1 (amino acids 1-424 and T344D of accession number BAA 19885.1), expressed in insect cells using baculovirus expression system and purified via glutathione sepharose affinity chromatography, was purchased from Carna Biosciences (product no 02-145) and used as enzyme. As substrate for the kinase reaction the biotinylated peptide biotin-Ahx-IKKRKLTRRKSLKG (C-terminus in amide form) was used which can be purchased e.g. form the company Biosyntan (Berlin-Buch, Germany).
(§2) For the assay 50 nL of a 100fold concentrated solution of the test compound in DMSO was pipetted into a black low volume 384well microtiter plate (Greiner Bio-One, Frickenhausen, Germany), 2 μL of a solution of MKNK1 in aqueous assay buffer [50 mM HEPES pH 7.5, 5 mM magnesium chloride, 1.0 mM dithiothreitol, 0.005% (v/v) Nonidet-P40 (Sigma)] was added and the mixture was incubated for 15 min at 22° C. to allow pre-binding of the test compounds to the enzyme before the start of the kinase reaction. Then the kinase reaction was started by the addition of 3 μL of a solution of adenosine-tri-phosphate (ATP, 16.7 μM=>final conc. in the 5 μL assay volume is 10 μM) and substrate (0.1 μM=>final conc. in the 5 μL assay volume is 0.06 μM) in assay buffer and the resulting mixture was incubated for a reaction time of 45 min at 22° C. The concentration of MKNK1 was adjusted depending of the activity of the enzyme lot and was chosen appropriate to have the assay in the linear range, typical concentrations were in the range of 0.05 μg/ml. The reaction was stopped by the addition of 5 μL of a solution of TR-FRET detection reagents (5 nM streptavidine-XL665 [Cisbio Bioassays, Codolet, France] and 1 nM anti-ribosomal protein S6 (pSer236)-antibody from Invitrogen [#44921G] and 1 nM LANCE EU-W1024 labeled ProteinG [Perkin-Elmer, product no. AD0071]) in an aqueous EDTA-solution (100 mM EDTA, 0.1% (w/v) bovine serum albumin in 50 mM HEPES pH 7.5).
(§3) The resulting mixture was incubated for 1 h at 22° C. to allow the formation of complex between the phosphorylated biotinylated peptide and the detection reagents. Subsequently the amount of phosphorylated substrate was evaluated by measurement of the resonance energy transfer from the Eu-chelate to the streptavidine-XL. Therefore, the fluorescence emissions at 620 nm and 665 nm after excitation at 350 nm were measured in a TR-FRET reader, e.g. a Rubystar (BMG Labtechnologies, Offenburg, Germany) or a Viewlux (Perkin-Elmer). The ratio of the emissions at 665 nm and at […] was taken as the measure for the amount of phosphorylated substrate. The data were normalised (enzyme reaction without inhibitor=0% inhibition, all other assay components but no enzyme=100% inhibition).

human full-length MKNK1 [2] = target: T2, human full-length MKNK1 (Homo sapiens, UniProt Q9BUB5, T385D); assay: MKNK1 kinase high ATP assay (TR-FRET, 2 mM ATP); assay type: biochemical; conditions: ATP 2 mM, 15 min preincubation, GST-MKNK1 (T344D)
T2 construct: GST (Glutathione-S-Transferase) (N); purchased Carna Biosciences 02-145; host or cells: insect cells (baculovirus expression system)
T2 sequence (Q9BUB5 1-424 isoform Q9BUB5-2 T344D): as above
Description: MKNK1-inhibitory activity at high ATP of compounds of the present invention after their preincubation with MKNK1 was quantified employing the TR-FRET-based MKNK1 high ATP assay as described in the following paragraphs.
as §1, with “was used,” for “was used”, “e.g. from” for “e.g. form”
as §2, with “3.3 mM=>final” for “16.7 μM=>final”, “2 mM)” for “10 μM)”, “30” for “45”, “0.003 μg/mL.” for “0.05 μg/ml.”
as §3

SMILES	IC50 (human full-length MKNK1 [1]) [nM]	IC50 (human full-length MKNK1 [2]) [nM]
CCN(CC)CCCC(C)Oc1ccc2ncc(-c3cc4ccc(OC)cc4o3)n2n1 (stereo not drawn) [Example 10, N,N-diethyl-4-{[3-(6-methoxy-1-benzofuran-2-yl)imidazo[1,2-b]pyridazin-6-yl]-oxy}pentan-1-amine]	127	352
COc1ccc2cc(-c3cnc4ccc(OCCCN)nn34)oc2c1 [Example 6, 3-{[3-(6-methoxy-1-benzofuran-2-yl)imidazo[1,2-b]pyridazin-6-yl]oxy}propan-1-amine]	343	913
COc1ccc2cc(-c3cnc4ccc(OCCCCN)nn34)oc2c1 [Example 8, 4-{[3-(6-methoxy-1-benzofuran-2-yl)imidazo[1,2-b]pyridazin-6-yl]oxy}butan-1-amine]	217	798
CC(=O)NC[C@@H](C)Oc1ccc2ncc(-c3cc4ccc(O)cc4o3)n2n1 [Example 5, N-[(2R)-2-{[3-(6-hydroxy-1-benzofuran-2-yl)imidazo[1,2-b]pyridazin-6-yl]oxy}-propyl]acetamide]	40.2	37.7
COCCCOc1ccc2ncc(-c3cc4ccc(OC)cc4o3)n2n1 [Example 2, 3-(6-methoxy-1-benzofuran-2-yl)-6-(3-methoxypropoxy)imidazo[1,2-b]-pyridazine]	864	5520
COc1ccc2cc(-c3cnc4ccc(OCCCN5CCOCC5)nn34)oc2c1 [Example 13, 3-(6-methoxy-1-benzofuran-2-yl)-6-[3-(morpholin-4-yl)propoxy]imidazo[1,2-b]-pyridazine]	567	2130
COc1ccc2cc(-c3cnc4ccc(OCCC5CCCN5C)nn34)oc2c1 (stereo not drawn) [Example 11, 3-(6-methoxy-1-benzofuran-2-yl)-6-[2-(1-methylpyrrolidin-2-yl)ethoxy]imidazo-[1,2-b]pyridazine]	664	1150
COc1ccc2cc(-c3cnc4ccc(OCCN5CCNC5=O)nn34)oc2c1 [Example 12, 1-(2-{[3-(6-methoxy-1-benzofuran-2-yl)imidazo[1,2-b]pyridazin-6-yl]oxy}ethyl)-imidazolidin-2-one]	410	2390
C[C@H](CN)Oc1ccc2ncc(-c3cc4ccc(O)cc4o3)n2n1 [Example 4, 2-(6-{[(2R)-1-aminopropan-2-yl]oxy}imidazo[1,2-b]pyridazin-3-yl)-1-benzofuran-6-ol]	49.1	42.1
COc1ccc2cc(-c3cnc4ccc(OCCCCN(C)C)nn34)oc2c1 [Example 9, 4-{[3-(6-methoxy-1-benzofuran-2-yl)imidazo[1,2-b]pyridazin-6-yl]oxy}-N,N-dimethylbutan-1-amine]	434	1010

Further lines, results first:

IC50 (human full-length MKNK1 [1]) [nM]	IC50 (human full-length MKNK1 [2]) [nM]	SMILES
714	2570	COc1ccc2cc(-c3cnc4ccc(OCCCO)nn34)oc2c1 [Example 1, 3-{[3-(6-methoxy-1-benzofuran-2-yl)imidazo[1,2-b]pyridazin-6-yl]oxy}propan-1-ol]
1320	2820	COc1ccc2cc(-c3cnc4ccc(O[C@H](C)CN)nn34)oc2c1 [Example 15, (2R)-2-{[3-(6-methoxy-1-benzofuran-2-yl)imidazo[1,2-b]pyridazin-6-yl]oxy}-propan-1-amine]
977	2550	COc1ccc2cc(-c3cnc4ccc(OCCN)nn34)oc2c1 [Example 3, 2-{[3-(6-methoxy-1-benzofuran-2-yl)imidazo[1,2-b]pyridazin-6-yl]oxy}ethanamine]
5440	14800	COc1ccc2cc(-c3cnc4ccc(OCC(C)(C)CN(C)C)nn34)oc2c1 [Example 7, 3-{[3-(6-methoxy-1-benzofuran-2-yl)imidazo[1,2-b]pyridazin-6-yl]oxy}-N,N,2,2-tetramethylpropan-1-amine]
997	3810	COc1ccc2cc(-c3cnc4ccc(O[C@H](C)CNC(C)=O)nn34)oc2c1 [Example 14, N-[(2R)-2-{[3-(6-methoxy-1-benzofuran-2-yl)imidazo[1,2-b]pyridazin-6-yl]oxy}-propyl]acetamide]
